Data as given in patent US8871934B2, “Fluorene compound and pharmaceutical use thereof” (Japan Tobacco Inc., priority 2008, dated 2014).
Like-named read-outs stand apart in the source and are kept apart here.

Target: human PDHK2 (hPDHK2) (Homo sapiens (Human), UniProt Q15119)
Experiment: Inhibitory action of PDHK activity in vitro (kinase reaction, residual PDH activity measured)
Type: biochemical
[1] = PDHK inhibitory activity, class symbol of IC50
[2] = read-out: PDHK inhibitory activity IC50

SMILES | IC50 [1] | IC50 [2]
O=C(c1ccc2c(c1)C(O)(C(F)(F)F)c1ccccc1-2)N1CCCCC1 (stereo not shown) [compound 52] | > 1000 nM | 4010 nM
O=C(c1ccc2c(c1)C(O)(C(F)(F)F)c1ccccc1-2)N1CCCC1 (stereo not shown) [compound 53] | 100 to 1000 nM | 567 nM
CCN(CC)C(=O)c1ccc2c(c1)C(O)(C(F)(F)F)c1ccccc1-2 (stereo not shown) [compound 54] | > 1000 nM | 21900 nM
Nc1ccc2c(c1)C(O)(C(F)(F)F)c1ccccc1-2 (stereo not shown) [compound 55] | > 1000 nM | 19800 nM
CN(C(=O)c1ccc2c(c1)C(O)(C(F)(F)F)c1ccccc1-2)c1ccccc1 (stereo not shown) [compound 56] | > 1000 nM | > 100000 nM
CN(C(=O)c1ccc2c(c1)C(O)(C(F)(F)F)c1ccccc1-2)C1CCC1 (stereo not shown) [compound 57] | > 1000 nM | 5620 nM
O=C(c1ccc2c(c1)C(O)(C(F)(F)F)c1ccccc1-2)N1CCC1 (stereo not shown) [compound 58] | 100 to 1000 nM | 195 nM
CCCOC(=O)c1cccc2c1-c1ccccc1C2(O)C(F)(F)F (stereo not shown) [compound 59] | 100 to 1000 nM | 772 nM
CC(C)OC(=O)c1cccc2c1-c1ccccc1C2(O)C(F)(F)F (stereo not shown) [compound 60] | > 1000 nM | 2040 nM
COC(=O)c1cc(Cl)c2c(c1)C(O)(C(F)(F)F)c1ccccc1-2 (stereo not shown) [compound 61] | 100 to 1000 nM | 294 nM
Oc1ccc2c(c1)-c1ccccc1C2(O)C(F)(F)F (stereo not shown) [compound 62] | > 1000 nM | 15700 nM
Oc1cccc2c1-c1ccccc1C2(O)C(F)(F)F (stereo not shown) [compound 63] | > 1000 nM | 8480 nM
OC1(C(F)(F)F)c2ccccc2-c2c(C(F)(F)F)cccc21 (stereo not shown) [compound 64] | > 1000 nM | 18000 nM
CON(C)C(=O)c1cccc2c1-c1ccccc1C2(O)C(F)(F)F (stereo not shown) [compound 65] | > 1000 nM | > 100000 nM
CCOc1cccc2c1-c1ccccc1C2(O)C(F)(F)F (stereo not shown) [compound 66] | > 1000 nM | 66300 nM
CCOc1ccc2c(c1)-c1ccccc1C2(O)C(F)(F)F (stereo not shown) [compound 67] | > 1000 nM | 4200 nM
CC(=O)c1cccc2c1-c1ccccc1C2(O)C(F)(F)F (stereo not shown) [compound 68] | 100 to 1000 nM | 624 nM
OCc1ccc2c(c1)C(O)(C(F)(F)F)c1ccccc1-2 (stereo not shown) [compound 69] | > 1000 nM | 16000 nM
CCCc1ccc2c(c1)C(O)(C(F)(F)F)c1ccccc1-2 (stereo not shown) [compound 70] | > 1000 nM | 2210 nM
CC(C)c1ccc2c(c1)C(O)(C(F)(F)F)c1ccccc1-2 (stereo not shown) [compound 71] | > 1000 nM | 10200 nM
CCNC(=O)c1ccc2c(c1)-c1ccccc1C2(O)C(F)(F)F (stereo not shown) [compound 72] | > 1000 nM | 4420 nM
CC(C)NC(=O)c1ccc2c(c1)-c1ccccc1C2(O)C(F)(F)F (stereo not shown) [compound 73] | > 1000 nM | 4810 nM
OCc1cccc2c1-c1ccccc1C2(O)C(F)(F)F (stereo not shown) [compound 74] | > 1000 nM | 3320 nM
COCc1ccc2c(c1)C(O)(C(F)(F)F)c1ccccc1-2 (stereo not shown) [compound 75] | > 1000 nM | 6780 nM
CC(=O)c1ccc2c(c1)C(O)(C(F)(F)F)c1ccccc1-2 (stereo not shown) [compound 76] | > 1000 nM | 1750 nM

SMILES | IC50 [1] | IC50 [2]
CC1CCCN1C(=O)c1ccc2c(c1)C(O)(C(F)(F)F)c1ccccc1-2 (stereo not shown) [compound 77] | > 1000 nM | 2500 nM
O=C(c1ccc2c(c1)C(O)(C(F)(F)F)c1ccccc1-2)N1CC1 (stereo not shown) [compound 78] | > 1000 nM | 1360 nM
O=C(c1ccc2c(c1)C(O)(C(F)(F)F)c1ccccc1-2)N1CC(O)C1 (stereo not shown) [compound 79] | 100 to 1000 nM | 696 nM
CN(C)c1ccc2c(c1)C(O)(C(F)(F)F)c1ccccc1-2 (stereo not shown) [compound 80] | > 1000 nM | 8240 nM
CCC(=O)c1cccc2c1-c1ccccc1C2(O)C(F)(F)F (stereo not shown) [compound 81] | > 1000 nM | 2760 nM
COCc1cccc2c1-c1ccccc1C2(O)C(F)(F)F (stereo not shown) [compound 82] | > 1000 nM | 67300 nM
O=C(c1cccc2c1-c1ccccc1C2(O)C(F)(F)F)C1CC1 (stereo not shown) [compound 83] | > 1000 nM | 1140 nM
CN(C)c1cccc2c1-c1ccccc1C2(O)C(F)(F)F (stereo not shown) [compound 84] | > 1000 nM | 42100 nM
CNc1cccc2c1-c1ccccc1C2(O)C(F)(F)F (stereo not shown) [compound 85] | > 1000 nM | 23100 nM
COC1CN(C(=O)c2ccc3c(c2)C(O)(C(F)(F)F)c2ccccc2-3)C1 (stereo not shown) [compound 86] | 100 to 1000 nM | 378 nM
O=C(c1ccc2c(c1)C(O)(C(F)(F)F)c1ccccc1-2)N1CC(CO)C1 (stereo not shown) [compound 87] | 100 to 1000 nM | 669 nM
CC1CN(C(=O)c2ccc3c(c2)C(O)(C(F)(F)F)c2ccccc2-3)C1 (stereo not shown) [compound 88] | > 1000 nM | 2530 nM
CCOc1ccc2c(c1)C(O)(C(F)(F)F)c1ccccc1-2 (stereo not shown) [compound 89] | > 1000 nM | 2150 nM
CC1CCN1C(=O)c1ccc2c(c1)C(O)(C(F)(F)F)c1ccccc1-2 (stereo not shown) [compound 90] | 100 to 1000 nM | 474 nM
Cc1cc(C(=O)N2CCC2)cc2c1-c1ccccc1C2(O)C(F)(F)F (stereo not shown) [compound 91] | < 100 nM | 72 nM
OC1(C(F)(F)F)c2ccccc2-c2c(-c3cnco3)cccc21 (stereo not shown) [compound 92] | 100 to 1000 nM | 405 nM
CC(C)C(=O)c1cccc2c1-c1ccccc1C2(O)C(F)(F)F (stereo not shown) [compound 93] | > 1000 nM | 29500 nM
O=C(c1cc(Cl)c2c(c1)C(O)(C(F)(F)F)c1ccccc1-2)N1CCC1 (stereo not shown) [compound 94] | < 100 nM | 49 nM
CNc1ccc2c(c1)C(O)(C(F)(F)F)c1ccccc1-2 (stereo not shown) [compound 95] | > 1000 nM | 7830 nM
CC(=O)N(C)c1ccc2c(c1)C(O)(C(F)(F)F)c1ccccc1-2 (stereo not shown) [compound 96] | > 1000 nM | 6570 nM
OC1(C(F)(F)F)c2ccccc2-c2ccc(-c3ccccc3)cc21 (stereo not shown) [compound 97] | 100 to 1000 nM | 849 nM
O=C(c1ccccc1)c1ccc2c(c1)C(O)(C(F)(F)F)c1ccccc1-2 (stereo not shown) [compound 98] | > 1000 nM | 2420 nM
O=C(c1ccc2c(c1)C(O)(C(F)(F)F)c1ccccc1-2)c1cccs1 (stereo not shown) [compound 99] | 100 to 1000 nM | 718 nM
CCC(=O)Nc1ccc2c(c1)-c1ccccc1C2(O)C(F)(F)F (stereo not shown) [compound 100] | > 1000 nM | 6150 nM
CC(C)C(=O)Nc1ccc2c(c1)-c1ccccc1C2(O)C(F)(F)F (stereo not shown) [compound 101] | > 1000 nM | 10300 nM

SMILES | IC50 [1] | IC50 [2]
OC1(C(F)(F)F)c2ccccc2-c2ccc(-c3cccnc3)cc21 (stereo not shown) [compound 102] | 100 to 1000 nM | 323 nM
OC1(C(F)(F)F)c2ccccc2-c2ccc(-c3ccncc3)cc21 (stereo not shown) [compound 103] | 100 to 1000 nM | 151 nM
CCOC1CN(C(=O)c2ccc3c(c2)C(O)(C(F)(F)F)c2ccccc2-3)C1 (stereo not shown) [compound 104] | 100 to 1000 nM | 279 nM
CCCOC1CN(C(=O)c2ccc3c(c2)C(O)(C(F)(F)F)c2ccccc2-3)C1 (stereo not shown) [compound 105] | 100 to 1000 nM | 259 nM
COCCOC1CN(C(=O)c2ccc3c(c2)C(O)(C(F)(F)F)c2ccccc2-3)C1 (stereo not shown) [compound 106] | 100 to 1000 nM | 461 nM
O=C(O)COC1CN(C(=O)c2ccc3c(c2)C(O)(C(F)(F)F)c2ccccc2-3)C1 (stereo not shown) [compound 107] | > 1000 nM | 2610 nM
O=C(c1ccc2c(c1)C(O)(C(F)(F)F)c1ccccc1-2)N1CC(OCCO)C1 (stereo not shown) [compound 108] | 100 to 1000 nM | 462 nM
O=C(c1ccc2c(c1)C(O)(C(F)(F)F)c1ccccc1-2)C1CCCC1 (stereo not shown) [compound 109] | > 1000 nM | 1320 nM
CC(C)Oc1ccc2c(c1)C(O)(C(F)(F)F)c1ccccc1-2 (stereo not shown) [compound 110] | > 1000 nM | 2490 nM
O=C(c1cccc2c1-c1ccccc1C2(O)C(F)(F)F)N1CC1 (stereo not shown) [compound 111] | > 1000 nM | > 10000 nM
OC1(C(F)(F)F)c2ccccc2-c2ccc(-c3ccccn3)cc21 (stereo not shown) [compound 112] | > 1000 nM | 1230 nM
OC1(C(F)(F)F)c2ccccc2-c2c(Br)cccc21 (stereo not shown) [compound 113] | > 1000 nM | 1110 nM
O=C(c1cc(Br)c2c(c1)C(O)(C(F)(F)F)c1ccccc1-2)N1CCC1 (stereo not shown) [compound 114] | < 100 nM | 51 nM
COC(=O)COC1CN(C(=O)c2ccc3c(c2)C(O)(C(F)(F)F)c2ccccc2-3)C1 (stereo not shown) [compound 115] | 100 to 1000 nM | 417 nM
NC(=O)COC1CN(C(=O)c2ccc3c(c2)C(O)(C(F)(F)F)c2ccccc2-3)C1 (stereo not shown) [compound 116] | 100 to 1000 nM | 601 nM
CNC(=O)COC1CN(C(=O)c2ccc3c(c2)C(O)(C(F)(F)F)c2ccccc2-3)C1 (stereo not shown) [compound 117] | 100 to 1000 nM | 909 nM
CN(C)C(=O)COC1CN(C(=O)c2ccc3c(c2)C(O)(C(F)(F)F)c2ccccc2-3)C1 (stereo not shown) [compound 118] | 100 to 1000 nM | 839 nM
O=C(c1ccc2c(c1)C(O)(C(F)(F)F)c1ccccc1-2)C1CCC1 (stereo not shown) [compound 119] | > 1000 nM | 1000 nM
COC(=O)C1CN(C(=O)c2ccc3c(c2)C(O)(C(F)(F)F)c2ccccc2-3)C1 (stereo not shown) [compound 120] | 100 to 1000 nM | 174 nM
O=C(O)C1CN(C(=O)c2ccc3c(c2)C(O)(C(F)(F)F)c2ccccc2-3)C1 (stereo not shown) [compound 121] | > 1000 nM | 3680 nM
CC(=O)c1cc(C(=O)N2CCC2)cc2c1-c1ccccc1C2(O)C(F)(F)F (stereo not shown) [compound 122] | < 100 nM | 49 nM
NC(=O)C1CN(C(=O)c2ccc3c(c2)C(O)(C(F)(F)F)c2ccccc2-3)C1 (stereo not shown) [compound 123] | 100 to 1000 nM | 877 nM
CNC(=O)C1CN(C(=O)c2ccc3c(c2)C(O)(C(F)(F)F)c2ccccc2-3)C1 (stereo not shown) [compound 124] | 100 to 1000 nM | 736 nM
CN(C)C(=O)C1CN(C(=O)c2ccc3c(c2)C(O)(C(F)(F)F)c2ccccc2-3)C1 (stereo not shown) [compound 125] | 100 to 1000 nM | 227 nM
